From US11484607B2, “PSMA-targeted NIR dyes and their uses” (On Target Laboratories, LLC, priority 2015, dated 2022)

How the values were obtained:
[1] = biological target: T1, PSMA (Homo sapiens, UniProt Q04609); assay: Relative binding affinity of DUPA-NIR conjugates with respect to DUPA-FITC on 22Rv1 cells, flow cytometry; conditions: for Kd: conjugates with variable length spacers, 1 h at 37° C., 100 nM DUPA-FITC; for affinity for PSMA (in words): in vitro binding affinity data
T1 construct: host or cells: 22Rv1 human prostate cancer cells
Protocol: FIG. 3—Relative binding affinities of DUPA-NIR conjugates 1-9 with respect to DUPA-FITC (14). PSMA-positive 22Rv1 human prostate cancer cells were incubated for 1 h at 37° C. in the presence of 100 nM DUPA-FITC with increasing concentrations of DUPA-NIR conjugates. […] Cell bound fluorescence was assayed as using flow cytometry.
FIG. 6—Relative binding affinities of DUPA-NIR conjugates with aromatic amino acids linkers with respect to DUPA-FITC (14). PSMA-positive 22Rv1 human prostate cancer cells were incubated for 1 h at 37° C. in the presence of 100 nM DUPA-FITC with increasing concentrations of DUPA-NIR conjugates. […] Cell bound fluorescence was assayed as using flow cytometry.
FIG. 3 Relative binding affinities of DUPA-NIR conjugates 1-9 with respect to DUPA-FITC (14). PSMA-positive 22Rv1 human prostate cancer cells were incubated for 1 h at 37° C. in the presence of 100 nM DUPA-FITC with increasing concentrations of DUPA-NIR conjugates. […] Cell bound fluorescence was assayed as using flow cytometry.
in vitro studies. […] PSMA-positive 22Rv1 human prostate cancer cells were incubated for 1 h at 37° C. in the presence of 100 nM DUPA-FITC with increasing concentrations of DUPA-NIR conjugates. […] Cell bound fluorescence was assayed as using flow cytometry.
PSMA-positive 22Rv1 human prostate cancer cells were incubated for 1 h at 37° C. in the presence of 100 nM DUPA-FITC with increasing concentrations of DUPA-NIR conjugates. […] Cell bound fluorescence was assayed as using flow cytometry.
FIG. 24: Relative binding affinities of DUPA-NIR conjugates with respect to DUPA-FITC (14). PSMA-positive 22Rv1 human prostate cancer cells were incubated for 1 h at 37° C. in the presence of 100 nM DUPA-FITC with increasing concentrations of DUPA-NIR conjugates. […] Cell bound fluorescence was assayed as using flow cytometry.
PSMA-positive 22Rv1 human prostate cancer cells were incubated for 1 h at 37° C. in the presence of 100 nM DUPA-FITC with increasing concentrations of DUPA-NIR conjugates. […] Cell bound fluorescence was assayed as using flow cytometry
Cancer cells were incubated for 1 h at 37° C. in the presence of 100 nM DUPA-FITC with increasing concentrations of compound 15. […] Cell bound fluorescence was assayed as using flow cytometry.

[2] = system: human prostate tumor xenografts (22Rv1 cells); assay: Tissue biodistribution and tumor-to-tissue fluorescence ratio of DUPA-NIR conjugates, IVIS imaging; format: in vivo, mice; conditions: 2 h after tail vein injection
Protocol: In vivo studies. More specifically, biodistribution of DUPA-NIR conjugates 1-9 was monitored using fluorescence imaging of mice bearing human prostate tumor xenografts (22Rv1 cells). Male nude mice with 22Rv1 tumor xenografts were injected with DUPA-NIR dye conjugates via tail vein. The mice were euthanized 2 h after administration of the DUPA-NIR dye conjugate, selected tissues were harvested, and tissues were imaged with IVIS imager (ex=745 nm, em=ICG, exposure time=1 s).
The conjugates were also tested to show the ratio of tumor-to-tissue fluorescence. […] After imaging, fluorescence within a Region of interest (ROI) was measured for each tissue using In Vivo imaging software and tumor-to-tissue fluorescence was then calculated
in vivo studies. […] Male nude mice with 22Rv1 tumor xenografts were injected with DUPA-NIR dye conjugates via tail vein. The mice were euthanized 2 h after administration of the DUPA-NIR dye conjugate, selected tissues were harvested, and tissues were imaged with IVIS imager (ex=745 nm, em=ICG, exposure time=1 s). After imaging, fluorescence within a Region of interest (ROI) was measured for each tissue using In Vivo imaging software and tumor-to-tissue fluorescence was then calculated.
Male nude mice with 22Rv1 tumor xenografts were injected with DUPA-NIR dye conjugates via tail vein. The mice were euthanized 2 h after administration of the DUPA-NIR dye conjugate, selected tissues were harvested, and tissues were imaged with IVIS imager (ex=745 nm, em=ICG, exposure time=1 s). After imaging, fluorescence within a Region of interest (ROI) was measured for each tissue using In Vivo imaging software and tumor-to-tissue fluorescence was then calculated.
In vivo studies. […] Male nude mice with 22Rv1 tumor xenografts were injected with DUPA-NIR dye conjugates via tail vein. The mice were euthanized 2 h after administration of the DUPA-NIR dye conjugate, selected tissues were harvested, and tissues were imaged with IVIS imager (ex=745 nm, em=ICG, exposure time=1 s). After imaging, fluorescence within a Region of interest (ROI) was measured for each tissue using In Vivo imaging software and tumor-to-tissue fluorescence was then calculated.

[3] = system: 22Rv1 human prostate tumor xenograft; assay: Time dependent whole-body fluorescence imaging of DUPA-NIR conjugates, IVIS imager; format: in vivo, mouse; conditions: 6 or 20 nmol, imaged at different time intervals
Protocol: 22Rv1 human prostate tumor xenograft bearing mouse was injected with 20 nmol of 15 and imaged with IVIS imager (ex=745 nm, em=ICG, exposure time=1 s) at different time intervals.
22Rv1 human prostate tumor xenograft bearing mouse was injected with 20 nmol of 23 and imaged with IVIS imager (ex=745 nm, em=ICG, exposure time=1 s) at different time intervals.
22Rv1 human prostate tumor xenograft bearing mouse was injected with 20 nmol of 25 and imaged with IVIS imager (ex=745 nm, em=ICG, exposure time=1 s) at different time intervals
22Rv1 human prostate tumor xenograft bearing mouse was injected with 6 nmol of 35 and imaged with IVIS imager (ex=745 nm, em=ICG, exposure time=1 s) at different time intervals.
22Rv1 human prostate tumor xenograft bearing mouse was injected with 6 nmol of 36 and imaged with IVIS imager (ex=745 nm, em=ICG, exposure time=1 s) at different time intervals.
22Rv1 human prostate tumor xenograft bearing mouse was injected with 20 nmol of 39 and imaged with IVIS imager (ex=745 nm, em=ICG, exposure time=1 s) at different time intervals.
22Rv1 human prostate tumor xenograft bearing mouse was injected with 20 nmol of 40 and imaged with IVIS imager (ex=745 nm, em=ICG, exposure time=1 s) at different time intervals.
22Rv1 human prostate tumor xenograft bearing mouse was injected with 20 nmol of 41 and imaged with IVIS imager (ex=745 nm, em=ICG, exposure time=1 s) at different time intervals.
FIG. 25: Overlay of whole body or half body fluorescence image over white light images after adjusting the threshold. 22Rv1 human prostate tumor xenograft bearing mouse was injected with 20 nmol of 54 and imaged with IVIS imager (ex=745 nm, em=ICG, exposure time=1 s) at different time intervals.
22Rv1 human prostate tumor xenograft bearing mouse was injected with 20 nmol of 55 and imaged with IVIS imager (ex=745 nm, em=ICG, exposure time=1 s) at different time intervals.
22Rv1 human prostate tumor xenograft bearing mouse was injected with 20 nmol of 56 and imaged with IVIS imager (ex=745 nm, em=ICG, exposure time=1 s) at different time intervals.
22Rv1 human prostate tumor xenograft bearing mouse was injected with 20 nmol of 57 and imaged with IVIS imager (ex=745 nm, em=ICG, exposure time=1 s) at different time intervals
22Rv1 human prostate tumor xenograft bearing mouse was injected with 20 nmol of 58 and imaged with IVIS imager (ex=745 nm, em=ICG, exposure time=1 s) at different time intervals
22Rv1 human prostate tumor xenograft bearing mouse was injected with 20 nmol of 60 and imaged with IVIS imager (ex=745 nm, em=ICG, exposure time=1 s) at different time intervals.
in vivo studies. […] 22Rv1 human prostate tumor xenograft bearing mouse was injected with 20 nmol of 63 and imaged with IVIS imager (ex=745 nm, em=ICG, exposure time=1 s) at different time intervals.
22Rv1 human prostate tumor xenograft bearing mouse was injected with 6 nmol of 63 and imaged with IVIS imager (ex=745 nm, em=ICG, exposure time=1 s) at different time intervals.
22Rv1 human prostate tumor xenograft bearing mouse was injected with 20 nmol of 64 and imaged with IVIS imager (ex=745 nm, em=ICG, exposure time=1 s) at different time intervals.
22Rv1 human prostate tumor xenograft bearing mouse was injected with 6 nmol of 15 and imaged with IVIS imager (ex=745 nm, em=ICG, exposure time=1 s) at different time intervals.

[4] = system: basophils; assay: Basophil activation test (Flow CAST) in human blood samples; format: cell-based
Protocol: Tolerability Studies: The blood samples were collected into hirudin tubes and used within an hour of collection. For each donor, 4 different tubes were prepared for allergen, positive controls, and negative control. Samples were analyzed using Flow CAST® high sensitivity Basophil Activation Test (BAT). Briefly, stimulation buffer (100 μL, background) or anti-FcεER antibody (100 μL) or fMLP (100 μL) or OTL78 (75 μM in 100 μL of saline) was added to tubes containing stimulation buffer (200 μL). 100 μL of blood was added to each tube and mixed gently. After adding staining reagent (40 μL) containing anti-CD63-CD203c-PE-DY647 and anti-CCR3-PE, each tube was mixed gently and incubated for 15 minutes at 37° C. Lysing reagent (2 mL) was added to each tube, mixed gently, incubated for 5-10 minutes at room temperature, and centrifuged for 5 minutes at 500×g. The supernatant was discarded and the cells were re-suspended in wash buffer (900 μL) and analyzed using flow cytometry. CD63-CD203c-PE-DY647+/CCR3-PE+ cell population considered as the activated basophils.

T1 sequence (Q04609 whole entry): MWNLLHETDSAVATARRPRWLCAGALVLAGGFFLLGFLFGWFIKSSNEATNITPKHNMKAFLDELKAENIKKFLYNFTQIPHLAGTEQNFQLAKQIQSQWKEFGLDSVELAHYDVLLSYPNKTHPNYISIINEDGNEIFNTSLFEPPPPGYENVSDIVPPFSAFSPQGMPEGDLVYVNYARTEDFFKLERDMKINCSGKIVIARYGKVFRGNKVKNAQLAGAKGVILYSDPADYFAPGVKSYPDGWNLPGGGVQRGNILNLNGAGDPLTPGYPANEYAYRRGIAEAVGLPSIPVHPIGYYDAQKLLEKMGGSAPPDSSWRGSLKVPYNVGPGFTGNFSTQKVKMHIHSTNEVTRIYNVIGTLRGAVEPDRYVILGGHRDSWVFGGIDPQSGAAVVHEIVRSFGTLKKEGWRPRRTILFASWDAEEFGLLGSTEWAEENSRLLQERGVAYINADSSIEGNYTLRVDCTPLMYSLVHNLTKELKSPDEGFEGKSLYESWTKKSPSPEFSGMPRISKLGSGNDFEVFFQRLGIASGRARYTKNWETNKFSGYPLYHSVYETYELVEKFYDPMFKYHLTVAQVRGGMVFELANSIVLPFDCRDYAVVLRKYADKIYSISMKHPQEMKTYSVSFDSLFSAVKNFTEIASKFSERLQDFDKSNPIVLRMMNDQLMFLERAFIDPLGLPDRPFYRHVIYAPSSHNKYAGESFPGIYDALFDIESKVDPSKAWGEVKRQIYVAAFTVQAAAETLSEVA

Compound | Kd [1] | affinity for PSMA (in words) [1] | fluorescence intensity in the tumor / tumor accumulation [2] | tumor-to-background ratio (TBR), in words [2] | further results
CC1(C)C(/C=C/C2=C(Oc3ccc(C[C@H](NC(=O)CCCCCCCNC(=O)CC[C@H](NC(=O)N[C@@H](CCC(=O)O)C(=O)O)C(=O)O)C(=O)O)cc3)C(=C/C=C3/N(CCCCS(=O)(=O)O)c4ccc(S(=O)(=O)O)cc4C3(C)C)/CCC2)=[N+](CCCCS(=O)(=O)[O-])c2ccc(S(=O)(=O)O)cc21 [Compound 4, DUPA-EAOA-Tyr-S0456] | 15.2 nM | very high affinity | higher fluorescence intensity | best | 
CC1(C)C(/C=C/C2=C(Oc3ccc(C[C@H](NC(=O)CCCCCCCNC(=O)[C@H](Cc4ccccc4)NC(=O)[C@H](Cc4ccccc4)NC(=O)CC[C@H](NC(=O)N[C@@H](CCC(=O)O)C(=O)O)C(=O)O)C(=O)O)cc3)C(=C/C=C3/N(CCCCS(=O)(=O)O)c4ccc(S(=O)(=O)O)cc4C3(C)C)/CCC2)=[N+](CCCCS(=O)(=O)[O-])c2ccc(S(=O)(=O)O)cc21 [Compound 6] | 35.7 nM |  | lower | second | 
CC1(C)C(/C=C/C2=C(Oc3ccc(C[C@H](NC(=O)CCCCCCCNC(=O)[C@H](Cc4ccccc4)NC(=O)[C@H](Cc4ccccc4)NC(=O)C[C@H](NC(=O)CC[C@H](NC(=O)N[C@@H](CCC(=O)O)C(=O)O)C(=O)O)C(=O)O)C(=O)O)cc3)C(=C/C=C3/N(CCCCS(=O)(=O)O)c4ccc(S(=O)(=O)O)cc4C3(C)C)/CCC2)=[N+](CCCCS(=O)(=O)[O-])c2ccc(S(=O)(=O)O)cc21 [Compound 7] | 26.8 nM |  | lower | third best | 
CC1(C)C(/C=C/C2=C(Oc3ccc(C[C@H](NC(=O)[C@H](CCCNC(=N)N)NC(=O)[C@H](CCCNC(=N)N)NC(=O)CCCCCCCNC(=O)CC[C@H](NC(=O)N[C@@H](CCC(=O)O)C(=O)O)C(=O)O)C(=O)O)cc3)C(=C/C=C3/N(CCCCS(=O)(=O)O)c4ccc(S(=O)(=O)O)cc4C3(C)C)/CCC2)=[N+](CCCCS(=O)(=O)[O-])c2ccc(S(=O)(=O)O)cc21 [Compound 39] |  |  |  |  | whole-body imaging [3]: very good whole-body imaging
CC1(C)C(=CC=C2CCCC(C=CC3=[N+](CCCCS(=O)(=O)[O-])c4ccc(S(=O)(=O)O)cc4C3(C)C)=C2Oc2ccc(CC(NC(=O)CC(NC(=O)C(Cc3ccccc3)NC(=O)C(Cc3ccccc3)NC(=O)CCCCCCCNC(=O)CCC(NC(=O)NC(CCC(=O)O)C(=O)O)C(=O)O)C(=O)O)C(=O)O)cc2)N(CCCCS(=O)(=O)O)c2ccc(S(=O)(=O)O)cc21 (stereo not drawn) [Compound 49] |  | low binding affinity | very high tumor accumulation (high fluorescence intensity) | good | 
CSCC[C@H](NC=O)C(=O)N[C@@H](CC(C)C)C(=O)N[C@@H](Cc1ccccc1)C(=O)O [fMLP, N-formylmethionyl-leucyl-phenylalanine] |  |  |  |  | positive response (% activated basophils) ([4]; FIG. 47E): 73.5%; stimulated index ([4]; FIG. 47E, ≥2 considered positive response): 29.5; Percent of basophile activation, Avg ([4]; average of 3 healthy subjects): 60%; Percent of basophile activation, Subject 1 ([4]; healthy subjects, OTL78 75 μM): 73.5%; Percent of basophile activation, Subject 2 ([4]; healthy subjects, OTL78 75 μM): 55.9%; Percent of basophile activation, Subject 3 ([4]; healthy subjects, OTL78 75 μM): 50.6%; SI = Avg/background ([4]; stimulation index, ≥2 considered positive response): 23.1
